Reference: PubChem BioAssay AID248 (DTP/NCI, 2004)
“And” between values parts separate entries of the source, which are not always exact repeats. Equal entries are not always repeated. Toxic doses and inconclusive results are not listed.

Tested on: L1210 leukemia ip in BDF1 mice, survival T/C
Experiment: NCI In Vivo Anticancer Drug Screen. Data for tumor model L1210 Leukemia (intraperitoneal) in B6D2F1 (BDF1) mice
Conditions: endpoint: mean survival time, higher = longer survival
How it was run: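 Tumor cells were implanted, animals were treated, and survival was followed. The result divides the treated measurement by the vehicle-control measurement.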

[1] = dose: 100.0 mg/kg/injection, schedule: Q01DX009 (ip), vehicle: saline with Tween-80
[2] = dose: 200.0 mg/kg/injection, schedule: Q01DX009 (ip), vehicle: saline with Tween-80
[3] = dose: 400.0 mg/kg/injection, schedule: Q01DX009 (ip), vehicle: saline with Tween-80
[4] = dose: 100.0 mg/kg/injection, schedule: Q04DX003 (ip), vehicle: saline with Tween-80
[5] = dose: 200.0 mg/kg/injection, schedule: Q04DX003 (ip), vehicle: saline with Tween-80
[6] = dose: 100.0 mg/kg/injection, schedule: Q04DX002 (ip), vehicle: saline with Tween-80
[7] = dose: 200.0 mg/kg/injection, schedule: Q04DX002 (ip), vehicle: saline with Tween-80
[8] = dose: 400.0 mg/kg/injection, schedule: Q04DX002 (ip), vehicle: saline with Tween-80
[9] = dose: 100.0 mg/kg/injection, schedule: Q04DX003 (ip), vehicle: Klucel (hydroxypropylcellulose) (HPC)
[10] = dose: 200.0 mg/kg/injection, schedule: Q04DX003 (ip), vehicle: Klucel (hydroxypropylcellulose) (HPC)
[11] = dose: 400.0 mg/kg/injection, schedule: Q04DX003 (ip), vehicle: Klucel (hydroxypropylcellulose) (HPC)
[12] = dose: 100.0 mg/kg/injection, schedule: Q01DX001 (ip), vehicle: saline
[13] = dose: 200.0 mg/kg/injection, schedule: Q01DX001 (ip), vehicle: saline
[14] = dose: 400.0 mg/kg/injection, schedule: Q01DX001 (ip), vehicle: saline

Compound: O=C(CNC(=O)c1ccccc1)N/N=C/c1c(O)ccc2ccccc12
- T/C [1]: 95 % of control
- T/C [2]: 95 % of control
- T/C [3]: 97 % of control

Compound: ON=C1CSSC1
- T/C (dose: 1.0 mg/kg/injection, schedule: Q01DX009 (ip), vehicle: saline with Tween-80): 97 % of control
- T/C (dose: 1.56 mg/kg/injection, schedule: Q04DX003 (ip), vehicle: saline with Tween-80): 97 % of control
- T/C (dose: 2.0 mg/kg/injection, schedule: Q01DX009 (ip), vehicle: saline with Tween-80): 97 % of control
- T/C (dose: 3.12 mg/kg/injection, schedule: Q04DX003 (ip), vehicle: saline with Tween-80): 106 % of control
- T/C (dose: 4.0 mg/kg/injection, schedule: Q01DX009 (ip), vehicle: saline with Tween-80): 101 % of control
- T/C (dose: 6.25 mg/kg/injection, schedule: Q04DX003 (ip), vehicle: saline with Tween-80): 101 % of control
- T/C (dose: 8.0 mg/kg/injection, schedule: Q01DX009 (ip), vehicle: saline with Tween-80): 104 % of control
- T/C (dose: 12.5 mg/kg/injection, schedule: Q04DX003 (ip), vehicle: saline with Tween-80): 89 % of control and 90 % of control

Compound: CC1(C)CN(Cc2ccc(Cl)cc2)C1=O
- T/C (dose: 44.0 mg/kg/injection, schedule: Q01DX001 (ip), vehicle: other): 97 % of control
- T/C (dose: 44.0 mg/kg/injection, schedule: Q01DX009 (ip), vehicle: saline with Tween-80): 90 % of control
- T/C (dose: 44.0 mg/kg/injection, schedule: Q04DX003 (ip), vehicle: other): 96 % of control
- T/C (dose: 50.0 mg/kg/injection, schedule: Q04DX002 (ip), vehicle: other): 154 % of control
- T/C (dose: 66.0 mg/kg/injection, schedule: Q01DX001 (ip), vehicle: other): 100 % of control
- T/C (dose: 66.0 mg/kg/injection, schedule: Q01DX009 (ip), vehicle: saline with Tween-80): 89 % of control
- T/C (dose: 66.0 mg/kg/injection, schedule: Q04DX003 (ip), vehicle: other): 101 % of control
- T/C (dose: 100.0 mg/kg/injection, schedule: Q01DX001 (ip), vehicle: other): 96 % of control
- T/C [1]: 91 % of control
- T/C (dose: 100.0 mg/kg/injection, schedule: Q04DX002 (ip), vehicle: other): 92 % of control and 113 % of control
- T/C (dose: 100.0 mg/kg/injection, schedule: Q04DX003 (ip), vehicle: other): 100 % of control
- T/C (dose: 150.0 mg/kg/injection, schedule: Q01DX001 (ip), vehicle: other): 98 % of control
- T/C (dose: 150.0 mg/kg/injection, schedule: Q01DX009 (ip), vehicle: saline with Tween-80): 92 % of control
- T/C (dose: 150.0 mg/kg/injection, schedule: Q04DX003 (ip), vehicle: other): 103 % of control
- T/C (dose: 225.0 mg/kg/injection, schedule: Q01DX001 (ip), vehicle: other): 100 % of control
- T/C (dose: 225.0 mg/kg/injection, schedule: Q01DX009 (ip), vehicle: saline with Tween-80): 93 % of control
- T/C (dose: 225.0 mg/kg/injection, schedule: Q04DX003 (ip), vehicle: other): 96 % of control
- T/C (dose: 400.0 mg/kg/injection, schedule: Q04DX002 (ip), vehicle: other): 95 % of control and 103 % of control

Compound: Cc1ccc(S(=O)(=O)N2CC(O)CC2C(=O)O)cc1 (configuration not stated)
- T/C [1]: 96 % of control
- T/C [4]: 93 % of control and 100 % of control
- T/C [2]: 101 % of control
- T/C [5]: 95 % of control and 103 % of control
- T/C [3]: 101 % of control
- T/C (dose: 400.0 mg/kg/injection, schedule: Q04DX003 (ip), vehicle: saline with Tween-80): 93 % of control and 96 % of control

Compound: O=Cc1ccc[n+](Cc2ccccc2)c1
- T/C (dose: 75.0 mg/kg/injection, schedule: Q01DX001 (ip), vehicle: saline): 98 % of control
- T/C (dose: 150.0 mg/kg/injection, schedule: Q01DX001 (ip), vehicle: saline): 102 % of control
- T/C (dose: 300.0 mg/kg/injection, schedule: Q01DX001 (ip), vehicle: saline): 102 % of control

Compound: Nc1cccc(CO)c1
- T/C [6]: 104 % of control
- T/C [7]: 90 % of control
- T/C [8]: 90 % of control

Compound: Cc1ccc(-n2c(O)c(N=Nc3ccc(Cl)cc3)c(=O)n(-c3ccc(I)cc3)c2=S)cc1
- T/C (dose: 37.5 mg/kg/injection, schedule: Q01DX001 (ip), vehicle: Klucel (hydroxypropylcellulose) (HPC)): 92 % of control
- T/C (dose: 75.0 mg/kg/injection, schedule: Q01DX001 (ip), vehicle: Klucel (hydroxypropylcellulose) (HPC)): 97 % of control
- T/C (dose: 150.0 mg/kg/injection, schedule: Q01DX001 (ip), vehicle: Klucel (hydroxypropylcellulose) (HPC)): 100 % of control

Compound: CSCCC(C)C
- T/C (dose: 50.0 mg/kg/injection, schedule: Q01DX009 (ip), vehicle: saline with Tween-80): 112 % of control
- T/C [1]: 106 % of control
- T/C [4]: 95 % of control
- T/C [2]: 95 % of control
- T/C [5]: 103 % of control

Compound: CS(=O)(=O)c1nc(Cl)nc(S(C)(=O)=O)c1Cl
- T/C [9]: 110 % of control
- T/C [10]: 107 % of control
- T/C [11]: 104 % of control

Compound: O=[N+]([O-])c1cc(/C=N\N=C\c2ccco2)ccc1Cl
- T/C (dose: 5.0 mg/kg/injection, schedule: Q01DX001 (ip), vehicle: saline): 100 % of control
- T/C (dose: 10.0 mg/kg/injection, schedule: Q01DX001 (ip), vehicle: saline): 98 % of control
- T/C (dose: 20.0 mg/kg/injection, schedule: Q01DX001 (ip), vehicle: saline): 96 % of control
- T/C (dose: 40.0 mg/kg/injection, schedule: Q01DX001 (ip), vehicle: saline): 88 % of control
- T/C (dose: 80.0 mg/kg/injection, schedule: Q01DX001 (ip), vehicle: saline): 88 % of control

Compound: Ic1nc(I)c(I)[nH]1
- T/C [1]: 102 % of control
- T/C [2]: 105 % of control
- T/C [3]: 102 % of control

Compound: CNCC(OC)c1ccc(O)c(O)c1 (configuration not stated)
- T/C (dose: 100.0 mg/kg/injection, schedule: Q01DX009 (ip), vehicle: saline): 105 % of control
- T/C (dose: 100.0 mg/kg/injection, schedule: Q04DX003 (ip), vehicle: saline): 108 % of control
- T/C (dose: 200.0 mg/kg/injection, schedule: Q01DX009 (ip), vehicle: saline): 105 % of control
- T/C (dose: 200.0 mg/kg/injection, schedule: Q04DX003 (ip), vehicle: saline): 106 % of control
- T/C (dose: 400.0 mg/kg/injection, schedule: Q04DX003 (ip), vehicle: saline): 108 % of control

Compound: CC(NCl)c1ccccc1 (configuration not stated)
- T/C [12]: 95 % of control
- T/C [13]: 100 % of control
- T/C [14]: 100 % of control

Compound: CCn1c(=O)c2ccccc2c2cc([N+](=O)[O-])ccc21
- T/C [9]: 90 % of control
- T/C [10]: 97 % of control
- T/C [11]: 97 % of control

Compound: O=C(CBr)c1cc(-c2ccc(Cl)c(Cl)c2)nc2c(Cl)cc(Cl)cc12
- T/C [12]: 94 % of control
- T/C [13]: 95 % of control
- T/C [14]: 94 % of control

Compound: CC1(C)CC(=O)CC(C)(C)ON1
- T/C [6]: 99 % of control
- T/C [7]: 99 % of control
- T/C [8]: 99 % of control

Compound: Cc1cc([N+](=O)[O-])c(NCCOC(=O)c2ccccc2Cl)c([N+](=O)[O-])c1
- T/C (dose: 100.0 mg/kg/injection, schedule: Q01DX009 (ip), vehicle: Klucel (hydroxypropylcellulose) (HPC)): 102 % of control
- T/C (dose: 200.0 mg/kg/injection, schedule: Q01DX009 (ip), vehicle: Klucel (hydroxypropylcellulose) (HPC)): 103 % of control
- T/C (dose: 400.0 mg/kg/injection, schedule: Q01DX009 (ip), vehicle: Klucel (hydroxypropylcellulose) (HPC)): 102 % of control

Compound: C[CH2][Pb]([CH2]C)([CH2]C)[O][As](=O)(O)c1ccc(N)cc1
- T/C (dose: 0.75 mg/kg/injection, schedule: Q01DX009 (ip), vehicle: Klucel (hydroxypropylcellulose) (HPC)): 98 % of control
- T/C (dose: 1.5 mg/kg/injection, schedule: Q01DX009 (ip), vehicle: Klucel (hydroxypropylcellulose) (HPC)): 102 % of control
- T/C (dose: 1.5 mg/kg/injection, schedule: Q04DX003 (ip), vehicle: Klucel (hydroxypropylcellulose) (HPC)): 96 % of control
- T/C (dose: 3.0 mg/kg/injection, schedule: Q01DX009 (ip), vehicle: Klucel (hydroxypropylcellulose) (HPC)): 96 % of control and 102 % of control
- T/C (dose: 3.0 mg/kg/injection, schedule: Q04DX003 (ip), vehicle: Klucel (hydroxypropylcellulose) (HPC)): 100 % of control
- T/C (dose: 6.0 mg/kg/injection, schedule: Q04DX003 (ip), vehicle: Klucel (hydroxypropylcellulose) (HPC)): 98 % of control

Compound: CC(=O)CC(Br)CBr (configuration not stated)
- T/C (dose: 25.0 mg/kg/injection, schedule: Q04DX003 (ip), vehicle: saline with Tween-80): 91 % of control
- T/C (dose: 50.0 mg/kg/injection, schedule: Q04DX003 (ip), vehicle: saline with Tween-80): 98 % of control
- T/C [4]: 100 % of control

Compound: CCCCCCCCCCCCCCNC(=O)Nc1ccc(Cl)c(Cl)c1
- T/C [12]: 95 % of control
- T/C [13]: 92 % of control
- T/C [14]: 95 % of control
